We go through 1 molecule from article PMC9998255 (Archives of Pharmacal Research, 2023).

One data set relates to NLRP3 inflammasome. It counts as cell-based, C57BL/6 mice.
Data set [1] has as its system TAA-induced liver fibrosis. Further details: species or system BALB/c mice. As to conditions: mouse, in vivo.
The conditions of data set [2]: 0.5 h, pH 7.4.
For data set [3] the following is noted: 0.5 h, pH 7.4. The source holds these as a separate data set.
The conditions of data set [4]: in vivo; cited from earlier work.

For `CC(=O)OC[C@H]1O[C@@H]([S-])[C@H](OC(C)=O)[C@@H](OC(C)=O)[C@@H]1OC(C)=O.CCP(CC)CC.[Au+]` [auranofin], the “effect on ATP-induced IL-1β secretion” value with NLRP3 inflammasome is recorded as “inhibited ATP-induced IL-1β secretion”. Moreover, the “efficacy on liver fibrosis compared with 10 mg/kg aurocyanide” value in data set [1] is listed as “similar”. Besides, the “percentage remaining after incubation with human liver microsomes” value in data set [2] is given as 6.9%. In addition, the “percentage remaining after incubation with mouse liver microsomes” value in data set [3] is 1.5%. In data set [4], the “fraction absorbed through the gastrointestinal tract” value is given as 15–25%.
